Test results: US20210147343A1 (priority 2018, published 2021)
Where a name gives a salt, the structure may show the parent alone.

These compounds were tested against T1, mu opioid receptor (MOR) (Homo sapiens, UniProt P35372) (assay: MOR cAMP agonist assay). Settings: not given.
T1 sequence (P35372 whole entry): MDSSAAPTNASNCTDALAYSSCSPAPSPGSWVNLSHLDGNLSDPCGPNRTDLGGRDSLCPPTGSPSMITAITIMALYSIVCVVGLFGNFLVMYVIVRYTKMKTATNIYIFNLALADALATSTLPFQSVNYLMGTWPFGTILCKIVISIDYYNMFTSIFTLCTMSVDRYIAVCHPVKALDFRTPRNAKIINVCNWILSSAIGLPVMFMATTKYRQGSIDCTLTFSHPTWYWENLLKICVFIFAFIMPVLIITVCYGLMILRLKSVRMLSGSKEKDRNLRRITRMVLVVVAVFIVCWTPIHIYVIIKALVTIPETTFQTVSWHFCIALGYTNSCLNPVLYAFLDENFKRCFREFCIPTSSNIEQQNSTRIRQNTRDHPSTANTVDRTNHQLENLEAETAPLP

| SMILES | EC50 [nM] |
| --- | --- |
| CC[C@@]1(c2ccccc2)C[C@H]1C(=O)NC[C@H](Cc1ccc(C(=O)NC)c(F)c1)N(C)C [Compound B-21, 4-((S)-2-(dimethylamino)-3-((1R,2R)-2-ethyl-2-phenylcyclopropane-1-carboxamido)propyl)-2-fluoro-N-methylbenzamide] | < 100 |
| CNC(=O)c1ccc(C[C@@H](CNC(=O)[C@H]2C[C@]2(C)c2ccccc2)N(C)C)cc1F [Compound B-22, 4-((S)-2-(dimethylamino)-3-((1S,2S)-2-methyl-2-phenylcyclopropane-1-carboxamido)propyl)-2-fluoro-N-methylbenzamide] | < 100 |
| CCNC(=O)c1ccc(C[C@@H](CNC(=O)[C@@H]2C[C@@]2(C)c2ccccc2)N(C)C)cc1F [Compound B-23, 4-((S)-2-(dimethylamino)-3-((1R,2R)-2-methyl-2-phenylcyclopropane-1-carboxamido)propyl)-N-ethyl-2-fluorobenzamide] | < 100 |
| CN(C)[C@H](CNC(=O)[C@@H]1C[C@@H]1c1ccccc1)Cc1ccc(O)cc1 [Compound B-25, (1R,2S)—N—((S)-2-(dimethylamino)-3-(4-hydroxyphenyl)propyl)-2-phenylcyclopropane-1-carboxamide] | 100 to 1000 |
| CNC(=O)c1cc(C)c(C[C@@H](CNC(=O)[C@@H]2C[C@@]2(C)c2ccccc2)N(C)C)cc1F [Compound B-26, 4-((S)-2-(dimethylamino)-3-((1R,2R)-2-methyl-2-phenylcyclopropane-1-carboxamido)propyl)-2-fluoro-N,5-dimethylbenzamide] | < 100 |
| CNC(=O)c1c(F)cc(C[C@@H](CNC(=O)[C@@H]2C[C@]2(C)c2ccccc2)N(C)C)cc1F [Compound B-27, 4-((S)-2-(dimethylamino)-3-((1R,2S)-2-methyl-2-phenylcyclopropane-1-carboxamido)propyl)-2,6-difluoro-N-methylbenzamide] | < 100 |
| CNC(=O)c1cc(F)c(C[C@@H](CNC(=O)[C@@H]2C[C@]2(C)c2ccccc2)N(C)C)cc1F [Compound B-28, 4-((S)-2-(dimethylamino)-3-((1R,2S)-2-methyl-2-phenylcyclopropane-1-carboxamido)propyl)-2,5-difluoro-N-methylbenzamide] | < 100 |
| CN(CC(F)(F)F)[C@H](CNC(=O)[C@@H]1C[C@]1(C)c1ccccc1)Cc1ccc(C(=O)NC2CC2)c(F)c1 [Compound B-29, N-cyclopropyl-2-fluoro-4-((S)-2-(methyl(2,2,2-trifluoroethyl)amino)-3-((1R,2S)-2-methyl-2-phenylcyclopropane-1-carboxamido)propyl)benzamide] | < 100 |
| CN(CC1CC1)[C@H](CNC(=O)[C@@H]1C[C@]1(C)c1ccccc1)Cc1ccc2[nH]c(=O)oc2c1 [Compound B-32, (1R,2S)—N—((S)-2-((cyclopropylmethyl)(methyl)amino)-3-(2-oxo-2,3-dihydrobenzo[d]oxazol-6-yl)propyl)-2-methyl-2-phenylcyclopropane-1-carboxamide] | 100 to 1000 |

What follows are compounds tested against T1, mu opioid receptor (MOR) (assay: MOR GTPγS agonist assay). Settings: membranes of CHO cells over-expressing MOR; SPA beads; read-out: MOR GTPγS EC50.
Type: biochemical
Parameters: host or cells: CHO-K1
Excerpt: Membranes obtained from the stable cell lines over-expressing MOR were subjected to GTPγS assay using SPA beads (Perkin Elmer, Cat #RPNQ0001).

| SMILES | EC50 [nM] |
| --- | --- |
| CN(C)[C@](C)(CNC(=O)c1ccc(Cl)c(Cl)c1)Cc1ccc(O)cc1 [Compound C-3, (S)-3,4-dichloro-N-(2-(dimethylamino)-3-(4-hydroxyphenyl)-2-methylpropyl)benzamide] | > 1000 |
| CN(C)[C@H](CNC(=O)c1ccc(Cl)c(Cl)c1)Cc1ccc2n[nH]cc2c1 [Compound C-4, (S)-3,4-dichloro-N-(2-(dimethylamino)-3-(1H-indazol-5-yl)propyl)benzamide] | < 100 |
| COc1ccc(C(=O)NC[C@H](Cc2c(C)cc(O)cc2C)N(C)C)cc1Cl [Compound C-5, (S)-3-chloro-N-(2-(dimethylamino)-3-(4-hydroxy-2,6-dimethylphenyl)propyl)-4-methoxybenzamide] | < 100 |
| Cc1cc(O)cc(C)c1C[C@@H](CNC(=O)c1ccc(Cl)c(F)c1)N(C)C [Compound C-6, (S)-4-chloro-N-(2-(dimethylamino)-3-(4-hydroxy-2,6-dimethylphenyl)propyl)-3-fluorobenzamide] | < 100 |
| CNC(=O)c1cc(C)c(C[C@@H](CNC(=O)c2ccccc2Cl)N(C)C)c(C)c1 [Compound C-10] | 100 to 1000 |
| CNC(=O)c1cc(C)c(C[C@@H](CNC(=O)c2ccc(Cl)cc2)N(C)C)c(C)c1 [Compound C-11] | < 100 |
| CNC(=O)c1cc(C)c(C[C@@H](CNC(=O)c2cc(Cl)cc(Cl)c2)N(C)C)c(C)c1 [Compound C-12] | < 100 |
| CNC(=O)c1cc(C)c(C[C@@H](CNC(=O)c2ccc(Cl)c(F)c2)N(C)C)c(C)c1 [Compound C-13] | < 100 |
| CNC(=O)c1cc(C)c(C[C@@H](CNC(=O)c2ccc(F)c(Cl)c2)N(C)C)c(C)c1 [Compound C-14] | < 100 |
| CNC(=O)c1cc(C)c(C[C@@H](CNC(=O)c2ccc(Cl)cc2C)N(C)C)c(C)c1 [Compound C-15] | < 100 |
| CNC(=O)c1cc(C)c(C[C@@H](CNC(=O)c2ccc(Cl)cc2Cl)N(C)C)c(C)c1 [Compound C-16] | < 100 |
| CNC(=O)c1cc(C)c(C[C@@H](CNC(=O)c2ccc(OC)cc2)N(C)C)c(C)c1 [Compound C-17] | < 100 |
| CNC(=O)c1cc(C)c(C[C@@H](CNC(=O)c2ccc(C)cc2C)N(C)C)c(C)c1 [Compound C-18] | < 100 |
| CN(C)[C@H](CNC(=O)c1ccc(Cl)c(F)c1)Cc1ccc(O)cc1Cl [Compound C-19] | 100 to 1000 |
| CN(C)[C@H](CNC(=O)c1ccc(C2CC2)cc1)Cc1ccc(O)cc1Cl [Compound C-20] | > 1000 |
| CN(C)[C@H](CNC(=O)c1ccc(Cl)cc1)Cc1ccc(O)cc1Cl [Compound C-21] | > 1000 |
| CN(C)[C@H](CNC(=O)c1cccc(Cl)c1)Cc1ccc(O)cc1 [Compound C-23, (S)-3-chloro-N-(2-(dimethylamino)-3-(4-hydroxyphenyl)propyl)benzamide] | 100 to 1000 |
| Cc1cc(O)cc(C)c1C[C@@H](CNC(=O)c1cccc(Cl)c1)N(C)C [Compound C-25] | < 100 |
| Cc1cc(O)cc(C)c1C[C@@H](CNC(=O)c1cc(F)c(Cl)c(F)c1)N(C)C [Compound C-29] | < 100 |

| SMILES | EC50 [nM] |
| --- | --- |
| CN1Cc2cc(O)ccc2C[C@H]1CNC(=O)c1cccc(Cl)c1 [Compound C-36, (S)-3-chloro-N-((7-hydroxy-2-methyl-1,2,3,4-tetrahydroisoquinolin-3-yl)methyl)benzamide] | < 100 |
| CNC(=O)c1ccc(C[C@@H](CNC(=O)c2ccc(Cl)c(Cl)c2)N(C)CC2CC2)cc1F [Compound C-38] | < 100 |
| CNC(=O)c1ccc(C[C@@H](CNC(=O)c2cccc(Cl)c2)N(C)C)c(Cl)c1 [Compound C-41] | < 100 |
| CNC(=O)c1cc(C)c(C[C@@H](CNC(=O)c2ccc(Cl)c(Cl)c2)N(C)C)c(C)c1 [Compound C-42, (S)-4-(3-(3,4-Dichlorobenzamido)-2-(dimethylamino)propyl)-N,3,5-trimethylbenzamide Hydrochloride] | < 100 |
| CNC(=O)c1cc(C)c(CC(CNC(=O)c2ccccc2C2CC2)N(C)C)c(C)c1 (centres unmarked) [Compound C-43] | < 100 |
| CNC(=O)c1cc(C)c(C[C@@H](CNC(=O)c2cccc(Cl)c2)N(C)C)c(C)c1 [Compound C-44] | < 100 |
| CNC(=O)c1cc(C)c(C[C@@H](CNC(=O)c2ccccn2)N(C)C)c(C)c1 [Compound C-46] | > 1000 |
| CNC(=O)c1cc(C)c(C[C@@H](CNC(=O)c2cnccn2)N(C)C)c(C)c1 [Compound C-47, (S)—N-(3-(2,6-dimethyl-4-(methylcarbamoyl)phenyl)-2-(dimethylamino)propyl)pyrazine-2-carboxamide] | > 1000 |
| CNC(=O)c1cc(C)c(C[C@@H](CNC(=O)c2ncc(Cl)cc2Cl)N(C)C)c(C)c1 [Compound C-48] | 100 to 1000 |
| CNC(=O)c1cc(C)c(C[C@@H](CNC(=O)c2ncc(C)cc2C)N(C)C)c(C)c1 [Compound C-49] | 100 to 1000 |
| CN(C)[C@H](CNC(=O)c1ccc(Cl)cc1Cl)Cc1ccc2n[nH]cc2c1 [Compound C-50, (S)-2,4-dichloro-N-(2-(dimethylamino)-3-(1H-indazol-5-yl)propyl) benzamide] | 100 to 1000 |
| Cc1ccc(C(=O)NC[C@H](Cc2ccc3n[nH]cc3c2)N(C)C)c(C)c1 [Compound C-51] | 100 to 1000 |
| Cc1cnc(C(=O)NC[C@H](Cc2ccc3n[nH]cc3c2)N(C)C)c(C)c1 [Compound C-52] | > 1000 |
| CN1Cc2cc(O)ccc2C[C@H]1CNC(=O)N1CCc2ccccc2C1 [Compound C-53, (S)—N-((7-hydroxy-2-methyl-1,2,3,4-tetrahydroisoquinolin-3-yl)methyl)-3,4-dihydroisoquinoline-2(1H)-carboxamide] | < 100 |
| Cc1cc(O)cc(C)c1C[C@@H](CNC(=O)N1CCc2ccccc2C1)N(C)C [Compound C-55, (S)—N-(2-(dimethylamino)-3-(4-hydroxy-2,6-dimethyphenyl)propyl)-3,4-dihydroisoquinoline-2(1H)-carboxamide] | > 1000 |
| CNC(=O)c1ccc(C[C@@H](CNC(=O)N2CCc3ccccc3C2)N(C)C)cc1F [Compound C-58, (S)—N-(2-(dimethylamino)-3-(3-fluoro-4-(methylcarbamoyl)phenyl)propyl)-3,4-dihydroisoquinoline-2(1H)-carboxamide] | < 100 |
| CN(CC1CC1)[C@H](CNC(=O)c1ccc(Cl)c(Cl)c1)Cc1ccc2[nH]ncc2c1 [Compound C-62, (S)-3,4-dichloro-N-(2-((cyclopropylmethyl)(methyl)amino)-3-(1H-indazol-5-yl)propyl)benzamide] | 100 to 1000 |
| CN(CC(F)(F)F)[C@H](CNC(=O)c1ccc(Cl)c(Cl)c1)Cc1ccc2[nH]ncc2c1 [Compound C-63] | > 1000 |
| CN(C)[C@H](CNC(=O)c1ccc(Cl)c(F)c1)Cc1ccc2n[nH]cc2c1 [Compound C-65, (S)-4-chloro-N-(2-(dimethylamino)-3-(2H-indazol-5-yl)propyl)-3-fluorobenzamide] | < 100 |
